Measured values published in US3994981A, “Derivatives of certain geranyl phenyl ethers” (Stauffer Chemical Company, priority 1973, dated 1976).

Tested on: yellow mealworm, Tenebrio molitor, L.
Experiment: Insecticidal evaluation test: hindering metamorphosis of insects (Tenebrio molitor pupae, topical application)
Assay type: in vivo
Conditions: applied in acetone to the venter of pupae 1-25 hours old; 28° C., 40% humidity; graded at adult emergence (6-8 days); average of 2 groups of 20 pupae
Experimental: The degree of activity of a candidate compound to hinder or impede the metamorphosis of insects is measured by treating the penultimate larval stage of a representative insect with the compound and examining it after its last molt toward the adult form for retention of immature features.
Specifically, yellow mealworm, Tenebrio molitor, L., larvae are maintained at 28° C. and 40% humidity on a diet of bran flakes. Prepupae care collected from the culture and kept in separate containers. The pupae collected once daily, are 1-25 hours old at the time of treatment. By means of a syringe, suitable amounts of candidate compounds in […] of acetone are applied to the ventor of Tenebrio molitor, L. pupae. Treated pupae are maintained at 28° C. and 40% humidity until the adults emerged (usually within 6-8 days). Emerged adults are graded as positive, negative, or dead. To be considered a positive response, the presence of typical pupal cuticle, urogomphi, gin trap, and abnormal wings, etc., are required. For each test, 2 groups of 20 pupae were used and the averaged results were reported.
The dose of a candidate compound per pupa that is needed to kill or give a positive response in the above insecticidal evaluation test for 10 of the 20 pupae is determined.

SMILES	ED50: dose per pupa needed to kill or give a positive response for 10 of the 20 pupae
C=C(C)C(Cl)CCC(C)=CCOc1ccc(CC)cc1 (stereo not shown) [Compound 2, 1-(4'-ethyl) phenoxy-3,7-dimethyl-6-chloro-2,7-octadiene]	0.1 μg/pupa
C=C(C)C(Cl)CCC(C)=CCOc1ccc(SC)cc1 (stereo not shown) [Compound 1]	0.3 μg/pupa
C=C(C)C(Cl)CCC1(C)OC1COc1ccc(CC)cc1 (stereo not shown) [Compound 24, 3,7-dimethyl-6-chloro-1-p-ethylphenoxy-2,3-epoxy-7-octene]	0.03 μg/pupa
C=C(C)C(Br)CCC(C)=CCOc1ccc(CC)cc1 (stereo not shown) [Compound 3, 1-(4'-ethyl) phenoxy-3,7-dimethyl-6-bromo-2,7-octadiene]	0.5 μg/pupa
